Key:
iCell® motor neurons = assay: Toxicity of (GR)10, untreated or protease-treated, on iCell motor neurons; type: cell-based; conditions: (GR)10 concentrations of 25, 50 and 100 μM
Procedure: 200 μM of (GR)10 were diluted in human cerebrospinal fluid (CSF) and 400 μL were applied to each immobilized proteases. The reaction was incubated 5 minutes at room temperature with end-to-end mixing. Columns were spun down 1 minute at 1,000 Xg to recover digested GR dipeptides. Columns were washed with 12 resin volumes of PBS. The procedure was repeated with 60 minutes digestion time. 100 μL of each samples were transferred to a clean tube, flash-frozen and subsequently used for LC/MS quantification of GR repeats of different lengths. The remaining 300 μL of each samples were flash-frozen and used to assess neuron toxicity.
300 μL of CSF were applied to each immobilized proteases and incubated 60 minutes at room temperature with end-to-end mixing. Columns were spun down 1 minute at 1,000 Xg to recover treated CSF. Samples were flash-frozen and subsequently used to test neuron toxicity.
This example describes the reduced toxicity of (GR)10 on in vitro neuronal cells by digestion of (GR)10 with proteases.

(GR)10 [1] = assay: (GR)10 digestion by immobilized proteases stored at 4° C. for over 2 months; type: biochemical; conditions: 200 μM (GR)10 in PBS, 5 or 60 minute treatment, FIGS. 8C, 8D
Procedure: (GR)10 was prepared in water to a stock concentration of 10 mM then diluted to a concentration of 200 μM in PBS with Ca^2+ and Mg^2+. (GR)10 samples were then treated with agarose resins having immobilized trypsin or elastase, PBS alone, or agarose resin alone, for 5 minutes or 60 minutes at room temperature. Resins were prepared by a routine method as commonly used by persons of ordinary skill in the art (e.g., the binding reaction described in the POROS™ 20 AL, EP and OH Perfusion Chromatography Bulk Media for Activated Affinity Chromatography Product Information Sheet, ThermoFisher Scientific, Waltham, Mass., Pub. No. 8-0031-40-0993, Rev. C., (incorporated herein by reference in its entirety)) and stored at 4° C. for over 2 months.
50 μl of treated samples were prepared for LC/MS analysis by adding 2.5 μl of 10% trifluoroacetic acid to each sample and 150 μl of dilution solution (0.5% formic acid in ACN/MeOH [50:50]).

(GR)10 [2] = assay: Cleavage of (GR)10 by enzymes in solution (PBS with CaCl2 and MgCl2), LC/MS of GR repeats; type: biochemical; conditions: (GR)10 50 μM
Procedure: • (GR)10 dipeptide (also (GR)8, (GR)6, (GR)4, (GR)2) were synthetized by solid-phase synthesis by CanPeptide; All peptides are uncapped and supplied lyophilized with TFA as counter ions. Purity was always above 95%. • Buffer: PBS buffer containing CaCl2 and MgCl2. • Stock solution of enzyme (e.g., 10 mg/mL) (prepared per manufacturer instructions) in PBS. Activators added as necessary. • Working solution of protein of the desired concentration (e.g., 100 μg/mL) prepared immediately before use by diluting the stock solution (e.g., 5 μL of 10 mg/mL stock solution) in PBS buffer (e.g., in 495 μL of PBS). Exemplary Procedure Using 50 μM Concentrations of (GR)10
25 μL of a 100 μM solution of (GR)10 was added to each well of a 96-well plate. 25 μL of a solution of enzyme (two times the desired final enzyme concentration) was added, and the plates were incubated at room temperature. At the specified time points (5 minutes, 10 minutes, 30 minutes, 60 minutes, and 180 minutes) 2.5 μL of a 10% TFA solution were added to stop the reaction. For the time 0 min well, the TFA was added to the well before addition of the enzyme. After last time point, all samples were further diluted with 150 μL of dilution solution. The quenched reaction mixtures were analyzed by LC/MS to determine the concentration of GR repeats of different lengths.
The chromatography and mass spectrometry conditions utilized are shown in Table 2 and Table 3, respectively.

agarose resin having immobilized elastase: elastase immobilized in-house on agarose resin
Effect of protease treatment of (GR)10 on (GR)10 toxicity (iCell® motor neurons): abrogation of (GR)10 toxicity | (GR)10 proteolytic activity after storage at 4° C. for over 2 months ((GR)10 [1]): did not exhibit substantial (GR)10 proteolytic activity

Thrombin
(GR)1 concentration ((GR)10 [2]; enzyme 2.5 μg/mL, 0 min): BLQ | (GR)2 concentration ((GR)10 [2]; enzyme 2.5 μg/mL, 0 min): BLQ | (GR)4 concentration ((GR)10 [2]; enzyme 2.5 μg/mL, 0 min): 0.1 µM | (GR)6 concentration ((GR)10 [2]; enzyme 2.5 μg/mL, 0 min): 0.1 µM | (GR)8 concentration ((GR)10 [2]; enzyme 2.5 μg/mL, 0 min): 1.1 µM | (GR)10 concentration ((GR)10 [2]; enzyme 2.5 μg/mL, 0 min): 37.7 µM | (GR)1 concentration ((GR)10 [2]; enzyme 2.5 μg/mL, 5 min): BLQ | (GR)2 concentration ((GR)10 [2]; enzyme 2.5 μg/mL, 5 min): BLQ | (GR)4 concentration ((GR)10 [2]; enzyme 2.5 μg/mL, 5 min): 0.1 µM | (GR)6 concentration ((GR)10 [2]; enzyme 2.5 μg/mL, 5 min): 0.1 µM | (GR)8 concentration ((GR)10 [2]; enzyme 2.5 μg/mL, 5 min): 1.5 µM | (GR)10 concentration ((GR)10 [2]; enzyme 2.5 μg/mL, 5 min): 42.9 µM | (GR)1 concentration ((GR)10 [2]; enzyme 2.5 μg/mL, 10 min): BLQ | (GR)2 concentration ((GR)10 [2]; enzyme 2.5 μg/mL, 10 min): BLQ | (GR)4 concentration ((GR)10 [2]; enzyme 2.5 μg/mL, 10 min): 0.1 µM | (GR)6 concentration ((GR)10 [2]; enzyme 2.5 μg/mL, 10 min): BLQ | (GR)8 concentration ((GR)10 [2]; enzyme 2.5 μg/mL, 10 min): 1.4 µM | (GR)10 concentration ((GR)10 [2]; enzyme 2.5 μg/mL, 10 min): 46.7 µM | (GR)1 concentration ((GR)10 [2]; enzyme 2.5 μg/mL, 30 min): BLQ | (GR)2 concentration ((GR)10 [2]; enzyme 2.5 μg/mL, 30 min): 0.1 µM | (GR)4 concentration ((GR)10 [2]; enzyme 2.5 μg/mL, 30 min): 0.2 µM | (GR)6 concentration ((GR)10 [2]; enzyme 2.5 μg/mL, 30 min): 0.1 µM | (GR)8 concentration ((GR)10 [2]; enzyme 2.5 μg/mL, 30 min): 1.3 µM | (GR)10 concentration ((GR)10 [2]; enzyme 2.5 μg/mL, 30 min): 49.1 µM | (GR)1 concentration ((GR)10 [2]; enzyme 2.5 μg/mL, 60 min): 0.1 µM | (GR)2 concentration ((GR)10 [2]; enzyme 2.5 μg/mL, 60 min): 0.2 µM | (GR)4 concentration ((GR)10 [2]; enzyme 2.5 μg/mL, 60 min): 0.3 µM | (GR)6 concentration ((GR)10 [2]; enzyme 2.5 μg/mL, 60 min): 0.1 µM | (GR)8 concentration ((GR)10 [2]; enzyme 2.5 μg/mL, 60 min): 1.1 µM | (GR)10 concentration ((GR)10 [2]; enzyme 2.5 μg/mL, 60 min): 56.2 µM | (GR)1 concentration ((GR)10 [2]; enzyme 2.5 μg/mL, 120 min): 0.2 µM | (GR)2 concentration ((GR)10 [2]; enzyme 2.5 μg/mL, 120 min): 0.2 µM | (GR)4 concentration ((GR)10 [2]; enzyme 2.5 μg/mL, 120 min): 0.4 µM | (GR)6 concentration ((GR)10 [2]; enzyme 2.5 μg/mL, 120 min): 0.3 µM | (GR)8 concentration ((GR)10 [2]; enzyme 2.5 μg/mL, 120 min): BLQ | (GR)10 concentration ((GR)10 [2]; enzyme 2.5 μg/mL, 120 min): 45.3 µM | (GR)1 concentration ((GR)10 [2]; enzyme 10 μg/mL, 0 min): BLQ | (GR)2 concentration ((GR)10 [2]; enzyme 10 μg/mL, 0 min): BLQ | (GR)4 concentration ((GR)10 [2]; enzyme 10 μg/mL, 0 min): 0.1 µM | (GR)6 concentration ((GR)10 [2]; enzyme 10 μg/mL, 0 min): BLQ | (GR)8 concentration ((GR)10 [2]; enzyme 10 μg/mL, 0 min): 1.3 µM | (GR)10 concentration ((GR)10 [2]; enzyme 10 μg/mL, 0 min): 52.0 µM | (GR)1 concentration ((GR)10 [2]; enzyme 10 μg/mL, 5 min): 0.1 µM | (GR)2 concentration ((GR)10 [2]; enzyme 10 μg/mL, 5 min): 0.1 µM | (GR)4 concentration ((GR)10 [2]; enzyme 10 μg/mL, 5 min): 0.2 µM | (GR)6 concentration ((GR)10 [2]; enzyme 10 μg/mL, 5 min): BLQ | (GR)8 concentration ((GR)10 [2]; enzyme 10 μg/mL, 5 min): BLQ | (GR)10 concentration ((GR)10 [2]; enzyme 10 μg/mL, 5 min): 54.8 µM | (GR)1 concentration ((GR)10 [2]; enzyme 10 μg/mL, 10 min): 0.1 µM | (GR)2 concentration ((GR)10 [2]; enzyme 10 μg/mL, 10 min): 0.1 µM | (GR)4 concentration ((GR)10 [2]; enzyme 10 μg/mL, 10 min): 0.2 µM | (GR)6 concentration ((GR)10 [2]; enzyme 10 μg/mL, 10 min): 0.1 µM | (GR)8 concentration ((GR)10 [2]; enzyme 10 μg/mL, 10 min): 1.0 µM | (GR)10 concentration ((GR)10 [2]; enzyme 10 μg/mL, 10 min): 59.4 µM | (GR)1 concentration ((GR)10 [2]; enzyme 10 μg/mL, 30 min): 0.3 µM | (GR)2 concentration ((GR)10 [2]; enzyme 10 μg/mL, 30 min): 0.4 µM | (GR)4 concentration ((GR)10 [2]; enzyme 10 μg/mL, 30 min): 0.4 µM | (GR)6 concentration ((GR)10 [2]; enzyme 10 μg/mL, 30 min): 0.4 µM | (GR)8 concentration ((GR)10 [2]; enzyme 10 μg/mL, 30 min): 1.3 µM | (GR)10 concentration ((GR)10 [2]; enzyme 10 μg/mL, 30 min): 48.6 µM | (GR)1 concentration ((GR)10 [2]; enzyme 10 μg/mL, 60 min): 0.5 µM | (GR)2 concentration ((GR)10 [2]; enzyme 10 μg/mL, 60 min): 0.6 µM | (GR)4 concentration ((GR)10 [2]; enzyme 10 μg/mL, 60 min): 0.8 µM | (GR)6 concentration ((GR)10 [2]; enzyme 10 μg/mL, 60 min): 0.5 µM | (GR)8 concentration ((GR)10 [2]; enzyme 10 μg/mL, 60 min): 2.4 µM | (GR)10 concentration ((GR)10 [2]; enzyme 10 μg/mL, 60 min): 55.2 µM | (GR)1 concentration ((GR)10 [2]; enzyme 10 μg/mL, 120 min): 1.1 µM | (GR)2 concentration ((GR)10 [2]; enzyme 10 μg/mL, 120 min): 1.4 µM | (GR)4 concentration ((GR)10 [2]; enzyme 10 μg/mL, 120 min): 1.6 µM | (GR)6 concentration ((GR)10 [2]; enzyme 10 μg/mL, 120 min): 1.3 µM | (GR)8 concentration ((GR)10 [2]; enzyme 10 μg/mL, 120 min): 3.0 µM | (GR)10 concentration ((GR)10 [2]; enzyme 10 μg/mL, 120 min): 48.7 µM

Reference: patent US11419921B2, “Methods of treating neurological disorders” (EnClear Therapies, Inc., priority 2018, dated 2022)
